For this experiment, the system named is Bradykinin Receptor 1 (B1R)-mediated formation of IL-6 in IMR-90 fibroblasts. The experiment in a line: Inhibition of the B1R-mediated formation of IL-6 in IMR-90 fibroblasts (IL-6 ELISA). Particulars: antagonist 10 μM. The experiment is classed as cell-based, human. An excerpt: The pro-inflammatory cytokines TNFα (or IL-1) lead in various cell types, such as, for example, fibroblasts, to an activation, which brings about inter alia enhanced expression of B1R. Subsequent stimulation of these cells with a B1R agonist results in the formation of further pro-inflammatory cytokines, such as, for example, IL-6. The chronification of inflammations is thereby promoted. Treatment with a B1R antagonist should lead to inhibition of the B1R agonist-induced IL-6 formation. By way of example, a B1R antagonist identified in the FLIPR assay was tested in this respect.
The human fibroblast cell line IMR-90 (ATCC, CCL-186) was passaged in culture medium (Ham's F12 nutrient mixture, Gibco Invitrogen GmbH, Karlsruhe Germany with 10% FBS, fetal bovine serum, Gibco, Invitrogen GmbH, Karlsruhe Germany; 0.1 mM non-essential amino acids, Gibco, 11140-035, 1 mM sodium pyruvate, Euro Clone, ECM0542D; 1.5 g/l sodium bicarbonate, Euro Clone, ECM0980D) on 80 cm^2 bottles (Nunc; 178905) (ratio:1:2 to 1:6; medium replaced every 3-4 days) and plated out for experiments on 96-well plates (Greiner bio-one; No. 655180) with 1×10^5 cells per well. The cells are incubated overnight at 37° C. and 5% CO2.
For activation with TNFα (human, recombinant, expressed in E. coli, SIGMA-ALDRICH T6674, 10 ng/ml) alone or TNFα combined with the human B1R agonist Lys-Des-Arg^9-bradykinin (Lys-Des-Arg^9-BK), the IMR-90 fibroblasts were incubated overnight at 37° C. and 5% CO2 in culture medium. The final concentrations of Lys-Des-Arg^9-BK were 1000 nM or 10 nM. Some IMR-90 stimulation batches additionally contained the B1R antagonist of Example 8 in a final concentration of 10 μM. 24 hours after activation, in each case 150 μl of culture medium were removed from all the different stimulation batches and were transferred to a new plate and frozen. After thawing of the supernatants, the IL-6 content was determined by means of a commercially available IL-6 Elisa.
ELISA Assay (Procedure, Modified According the Manufacturer's Specifications):
Elisa kit: from: BIOSOURCE; CytoSets™, Art. No.: CHC 1264
The above-described processes were carried out with Example compound 8.
(In general: In an ELISA, binding on a coated surface is turned into a signal by an enzyme label.)

[1] abbreviates: TNFα 10 ng/ml, 24 hours after activation.

The structures appear in SMILES notation.

With `COc1cc(C)c(S(=O)(=O)N2CCCCC2COCC(=O)N2CCN(C3CCN(C)CC3)CC2)c(C)c1` (centres unmarked) [Example 8, 2-[1-(4-methoxy-2,6-dimethyl-phenylsulfonyl)-piperidin-2-ylmethoxy]-1-[4-(1-methyl-piperidin-4-yl)-piperazin-1-yl]-ethanone], where the note is “TNFα + relatively high dose of Lys-Des-Arg^9-BK (1000 nM)”, the “inhibition of the activation of IL-6 formation” value is given as “still partially inhibited”. Further, the “inhibition of the activation of IL-6 formation” value (TNFα + relatively low dose of Lys-Des-Arg^9-BK (10 nM)) was “eliminated almost completely”. Also, under setting [1], the “Production of IL-6 (pg/ml) by IMR-90 fibroblasts, TNFα + Lys-Des-Arg^9-BK (10 nM)” value amounted to 119 pg/mL; the “Production of IL-6 (pg/ml) by IMR-90 fibroblasts, TNFα + Lys-Des-Arg^9-BK (1000 nM)” value was 483 pg/mL; the “Production of IL-6 (pg/ml) by IMR-90 fibroblasts, TNFα alone” value came to 136 pg/mL.

The record behind these values is patent publication US8435978B2, “Substituted sulfonamide compounds” (Gruenenthal GmbH, priority 2006, dated 2013).
